Several values for one entry are separate records, joined by “and”; a condition that tells them apart may be missing. Equal values may be shown once.
Tests used:
[1] = molecular target: PLK4 (h) (Homo sapiens, UniProt O00444); test: PLK-4 human kinase assay (SPA); format: biochemical; details: for IC50: read-out: PLK4 pIC50 (converted)
Procedure, shortened: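 Radiometric readout: 33P-labelled peptide captured on streptavidin SPA beads after EDTA stop, imaged by Leadseeker. Reaction ran 60 min at room temperature in Hepes pH 8.0 buffer. It contained 1 μM ATP with 2 nM [γ-33P]ATP, 10 μM biotinylated peptide and PLK4 (h) at 19 μg/ml.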

[2] = molecular target: AuroraB (h) (Homo sapiens, UniProt Q96GD4); test: Aurora-B human kinase assay (SPA); format: biochemical; details: for IC50: read-out: AuroraB pIC50 (converted)
Procedure, shortened: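 Scintillation proximity assay: AuroraB (h) at 0.5 μg/ml with 3 μM biotinylated peptide, 0.5 μM ATP and 2.2 nM [γ-33P]ATP in 60 mM Hepes pH 7.5, 3 mM MgCl2, 3 mM MnCl2, 2 mM DTT. 60 min at room temperature, EDTA stop, streptavidin PVT beads read on Leadseeker.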

[3] = molecular target: GSK3β (h) (Homo sapiens, UniProt P49841); test: GSK-3β human kinase assay (SPA); format: biochemical; details: for IC50: read-out: GSK3B pIC50 (converted)
Procedure, shortened: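 Radiometric SPA read-out: after EDTA stop, biotinylated 33P-labelled peptide bound streptavidin PVT beads and was imaged on Leadseeker. Reaction: 60 min, room temperature, GSK3β (h) at 1 μg/ml, 1 μM substrate peptide, 1 μM ATP with 2 nM [γ-33P]ATP, Tris pH 7.4/MgCl2/DTT buffer.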

[4] = molecular target: CDK1/CyclinB (h) (Homo sapiens, UniProt P06493); test: CDK1/CyclinB human kinase assay (FRET); format: biochemical; details: for IC50: read-out: CDK1 pIC50 (converted)
Procedure, shortened: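 Z'-LYTE FRET format: 0.2 μg/ml enzyme with 2 μM Ser/Thr peptide 12 and 10 μM ATP in 50 mM Hepes pH 7.5, 10 mM MgCl2, 1 mM EGTA, 0.01% Brij-35, 60 min at room temperature. Protease development 60 min; coumarin/fluorescein emission ratio (460/538 nm, excitation 390 nm) reports phosphorylation.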

[5] = test system: A2780; test: Cellular proliferation assay (Alamar blue), A2780; format: cell-based; details: A2780 cells, 72 hours with compound, 10% FCS; for IC50: Homo sapiens, A2780, 72 h, read-out: pIC50 A2780 (converted)
Method: (§1) […] functional properties of these compounds was tested in cellular proliferation assays on a panel of different cell lines in the presence of 10% FCS serum (37° C. and 5% (v/v) CO2). In a first step these cells were seeded and incubated for 24 hours in the absence of compound. In the second step the cells were incubated for 72 hours with the compounds to be tested for 72 hours. The viable cell number was finally assessed in a standard Alamar blue cell viability assay.
(§2) The viable cell number was assessed by incubation for either 4 h (HCT-116, H1299, H460) 6 h (SKOV3, HT29, U87-MG, Colo205) or 24 h (A2780, PC3, MDA-MB-231, A549, MCF-7) with Alamar blue (Resazurin 9 μg/ml, K-Ferrocyanide 90 μM K-Ferricyanide 90 μM) and the converted fluorescent product was quantified on a fluorescent plate readed (544 nm/590 nm). Effect of the compounds is calculated as of on control cells.

[6] = test system: HCT-116; test: Cellular proliferation assay (Alamar blue), HCT-116; format: cell-based; details: HCT-116 cells, 72 hours with compound, 10% FCS; for IC50: Homo sapiens, HCT-116, 72 h, read-out: pIC50 HCT-116 (converted)
Method: as §1, §2

[7] = test system: H1299; test: Cellular proliferation assay (Alamar blue), H1299; format: cell-based; details: H1299 cells, 72 hours with compound, 10% FCS; for IC50: Homo sapiens, NCI-H1299, 72 h, read-out: pIC50 H1299 (converted)
Method: as §1, §2

[8] = test system: MDA/MB231; test: Cellular proliferation assay (Alamar blue), MDA/MB231; format: cell-based; details: MDA/MB231 cells, 72 hours with compound, 10% FCS; for IC50: Homo sapiens, MDA-MB-231, 72 h, read-out: pIC50 MDA/MB231 (converted)
Method: as §1, §2

[9] = test system: U87MG; test: Cellular proliferation assay (Alamar blue), U87MG; format: cell-based; details: U87MG cells, 72 hours with compound, 10% FCS; for IC50: Homo sapiens, U-87 MG, 72 h, read-out: pIC50 U87MG (converted)
Method: as §1, §2

[10] = test system: PC-3; test: Cellular proliferation assay (Alamar blue), PC-3; format: cell-based; details: PC-3 cells, 72 hours with compound, 10% FCS; for IC50: Homo sapiens, PC-3, 72 h, read-out: pIC50 PC-3 (converted)
Method: as §1, §2

AuroraB (h), sequence (Q96GD4 whole entry): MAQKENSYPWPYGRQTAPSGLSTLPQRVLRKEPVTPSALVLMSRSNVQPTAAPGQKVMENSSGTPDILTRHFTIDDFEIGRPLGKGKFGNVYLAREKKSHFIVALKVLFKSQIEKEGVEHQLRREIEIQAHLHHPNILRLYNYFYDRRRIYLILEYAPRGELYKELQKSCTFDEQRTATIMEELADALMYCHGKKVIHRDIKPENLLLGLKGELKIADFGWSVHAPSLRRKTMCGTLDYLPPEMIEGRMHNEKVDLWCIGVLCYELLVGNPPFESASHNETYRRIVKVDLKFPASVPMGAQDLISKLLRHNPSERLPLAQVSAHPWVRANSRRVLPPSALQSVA
GSK3β (h), sequence (P49841 whole entry): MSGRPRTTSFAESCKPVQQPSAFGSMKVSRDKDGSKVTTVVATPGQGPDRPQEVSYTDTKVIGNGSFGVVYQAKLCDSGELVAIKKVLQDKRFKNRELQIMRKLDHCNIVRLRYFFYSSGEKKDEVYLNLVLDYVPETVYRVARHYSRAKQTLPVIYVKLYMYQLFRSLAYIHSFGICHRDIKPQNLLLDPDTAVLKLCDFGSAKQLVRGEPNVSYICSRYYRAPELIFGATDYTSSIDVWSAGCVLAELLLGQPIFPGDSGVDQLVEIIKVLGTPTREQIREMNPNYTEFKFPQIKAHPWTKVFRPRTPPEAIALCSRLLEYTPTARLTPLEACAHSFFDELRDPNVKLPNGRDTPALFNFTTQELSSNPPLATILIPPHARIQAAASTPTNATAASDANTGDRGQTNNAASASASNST
PLK4 (h), sequence (O00444 whole entry): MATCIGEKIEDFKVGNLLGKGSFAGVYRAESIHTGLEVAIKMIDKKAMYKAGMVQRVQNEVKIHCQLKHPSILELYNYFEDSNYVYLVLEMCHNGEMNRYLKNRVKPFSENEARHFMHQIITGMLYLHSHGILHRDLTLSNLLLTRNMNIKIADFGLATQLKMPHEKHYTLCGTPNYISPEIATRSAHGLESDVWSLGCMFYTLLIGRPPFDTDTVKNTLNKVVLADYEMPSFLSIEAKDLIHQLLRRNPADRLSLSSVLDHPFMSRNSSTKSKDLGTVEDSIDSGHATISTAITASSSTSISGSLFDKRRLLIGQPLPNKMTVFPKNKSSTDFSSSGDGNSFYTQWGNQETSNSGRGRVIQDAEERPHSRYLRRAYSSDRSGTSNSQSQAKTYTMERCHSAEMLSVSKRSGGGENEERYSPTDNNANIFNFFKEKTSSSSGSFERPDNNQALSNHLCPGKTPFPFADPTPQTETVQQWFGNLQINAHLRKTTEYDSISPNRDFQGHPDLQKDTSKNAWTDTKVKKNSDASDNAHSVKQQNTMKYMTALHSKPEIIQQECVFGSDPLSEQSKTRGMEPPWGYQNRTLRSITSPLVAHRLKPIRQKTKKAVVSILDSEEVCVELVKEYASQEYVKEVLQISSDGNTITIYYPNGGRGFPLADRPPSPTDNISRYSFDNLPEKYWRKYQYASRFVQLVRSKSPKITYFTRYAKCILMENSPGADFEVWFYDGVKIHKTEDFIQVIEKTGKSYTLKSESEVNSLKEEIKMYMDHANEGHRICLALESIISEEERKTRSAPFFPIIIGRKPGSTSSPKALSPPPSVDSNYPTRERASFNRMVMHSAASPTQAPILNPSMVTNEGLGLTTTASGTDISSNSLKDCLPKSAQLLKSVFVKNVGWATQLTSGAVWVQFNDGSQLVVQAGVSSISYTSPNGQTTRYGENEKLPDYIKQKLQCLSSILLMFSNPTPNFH
CDK1/CyclinB (h), sequence (P06493 whole entry): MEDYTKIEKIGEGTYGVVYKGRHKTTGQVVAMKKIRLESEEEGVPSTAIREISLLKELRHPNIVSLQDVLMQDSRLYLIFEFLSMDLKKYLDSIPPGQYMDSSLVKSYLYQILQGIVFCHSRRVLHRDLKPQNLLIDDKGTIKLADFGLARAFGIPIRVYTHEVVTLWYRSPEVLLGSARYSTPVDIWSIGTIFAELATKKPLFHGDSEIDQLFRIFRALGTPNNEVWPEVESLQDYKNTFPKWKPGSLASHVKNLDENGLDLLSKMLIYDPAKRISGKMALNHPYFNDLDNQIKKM
CDK1/CyclinB (h), sequence (P14635 whole entry partner): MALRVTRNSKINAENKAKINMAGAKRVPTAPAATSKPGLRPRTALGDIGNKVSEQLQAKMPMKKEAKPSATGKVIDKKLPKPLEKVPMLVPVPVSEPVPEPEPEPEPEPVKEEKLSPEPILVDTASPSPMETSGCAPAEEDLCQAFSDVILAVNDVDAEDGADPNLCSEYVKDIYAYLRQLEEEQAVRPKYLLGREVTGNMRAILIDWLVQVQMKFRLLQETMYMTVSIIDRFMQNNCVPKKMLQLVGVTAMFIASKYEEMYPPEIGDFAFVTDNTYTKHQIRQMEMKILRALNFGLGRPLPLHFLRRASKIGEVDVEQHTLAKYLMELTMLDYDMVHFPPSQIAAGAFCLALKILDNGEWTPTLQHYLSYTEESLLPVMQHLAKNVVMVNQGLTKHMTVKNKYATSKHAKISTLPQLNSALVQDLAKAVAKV

Structure (SMILES) | PLK4 pIC50 [1] | AuroraB pIC50 [2] | GSK3B pIC50 [3] | CDK1 pIC50 [4] | pIC50 A2780 [5] | pIC50 HCT-116 [6] | pIC50 H1299 [7] | pIC50 MDA/MB231 [8] | pIC50 U87MG [9] | pIC50 PC-3 [10] | IC50 [1] | IC50 [2] | IC50 [3] | IC50 [4] [µM] | IC50 [5] [µM] | IC50 [6] [µM] | IC50 [7] [µM] | IC50 [8] [µM] | IC50 [9] [µM] | IC50 [10] [µM]
COc1cc2cc(c1OC)OCCCC(=O)NCCCNc1ncnc3c1C(=CN2)C(=O)N3 (mixture of isomers) [Compound 147] | 6.95 | 6.6 | 6.5 | 6.91 | 5.37 | 5.90 | 5.97 | <5 | 5.35 | 5.42 | – | – | – | – | – | – | – | – | – | –
CN1CCNC(=O)CCCOc2cccc(c2)N/C=C2\C(=O)Nc3ncnc1c32 [Compound 40] | – | – | – | – | – | – | – | – | – | – | 4.9 µM | 8.32 µM | 1.51 µM | 7.08 | > 10 | > 10 | > 10 | > 10 | > 10 | > 10
COc1cc2cc(c1OC)OCCCC(=O)N(C)CCCNc1ncnc3c1/C(=C/N2)C(=O)N3 [Compound 112] | – | – | – | – | – | – | – | – | – | – | 0.105 µM | 0.191 µM | 0.115 µM | 0.0479 | > 10 | 0.55 | 0.562 | > 10 | 5.25 | > 10
CN1CCCNc2ncnc3c2/C(=C/Nc2cccc(c2)OCC(=O)N2CCC[C@@H]2C1)C(=O)N3 [Compound 170] | – | – | – | – | – | – | – | – | – | – | 7.41 µM | > 10 µM | 8.91 µM | – | > 10 | > 10 | > 10 | > 10 | > 10 | > 10
CN1CCNC(=O)CCCCOc2cccc(c2)N/C=C2\C(=O)Nc3ncnc1c32 [Compound 43] | – | – | – | – | – | – | – | – | – | – | 2.63 µM | – | 2.51 µM | 4.27 | > 10 | > 10 | > 10 | > 10 | > 10 | > 10
CN1CCCNc2ncnc3c2/C(=C/Nc2ccc(NC(=O)c4ccccc4)c(c2)OCCCC1=O)C(=O)N3 [Compound 108] | – | – | – | – | – | – | – | – | – | – | 0.891 µM | 0.617 µM | 1.55 µM | – | > 10 | > 10 | > 10 | 8.32 | > 10 | > 10
COc1cc2cc(c1OC)CN(C)CC(=O)N(C)CCN(C)CCNc1ncnc3c1/C(=C/N2)C(=O)N3 [Compound 155] | – | – | – | – | – | – | – | – | – | – | 8.71 µM | > 10 µM | 6.03 µM | > 10 | > 10 | > 10 | > 10 | > 10 | > 10 | > 10
CN1CCNC(=O)CCCOc2cccc(c2)N/C=C2\C(=O)Nc3ncnc(c32)NCC1 [Compound 159] | – | – | – | – | – | – | – | – | – | – | 4.37 µM | > 10 µM | 2.88 µM | – | > 10 | > 10 | > 10 | > 10 | > 10 | > 10
CN1CCCNc2ncnc3c2/C(=C/Nc2cc(cc(C(F)(F)F)c2)OCCCC1=O)C(=O)N3 [Compound 113] | – | – | – | – | – | – | – | – | – | – | – | 1.38 µM | > 10 µM | > 10 | > 10 | > 10 | > 10 | > 10 | > 10 | > 10
CN1CCNc2ncnc3c2/C(=C/Nc2cccc(c2)OCC(=O)N2CCC[C@@H]2C1)C(=O)N3 [Compound 168] | – | – | – | – | – | – | – | – | – | – | > 10 µM and 6.17 µM | > 10 µM | 7.59 µM and 5.75 µM | – | > 10 | > 10 | > 10 | > 10 | > 10 | > 10
CN1CCNC(=O)COc2cccc(c2)N/C=C2\C(=O)Nc3ncnc(c32)NCC1 [Compound 167] | – | – | – | – | 5.13 | 5.06 | – | – | – | – | 2.4 µM | 6.76 µM and 3.24 µM | 0.933 µM and 1.12 µM | – | 5.89 | 5.5 | > 10 | > 10 | > 10 | > 10
CN1CCCNc2ncnc3c2/C(=C/Nc2ccc(NC(=O)NC4CCCCC4)c(c2)OCCCC1=O)C(=O)N3 [Compound 107] | – | – | – | – | – | – | – | – | – | – | 1.05 µM | 0.275 µM | 2 µM | – | 0.0724 | 0.17 | 0.275 | 2.34 | 2.04 | 1.58
CN1CCCNc2ncnc3c2/C(=C/Nc2cccc(c2)OCC(=O)N[C@H](Cc2ccccc2)C1)C(=O)N3 [Compound 176] | – | – | – | – | – | – | – | – | – | – | 0.468 µM | 6.76 µM | 9.55 µM | – | > 10 | > 10 | > 10 | > 10 | > 10 | > 10
CN1CCCNc2ncnc3c2/C(=C/Nc2ccc(NS(=O)(=O)c4ccccc4)c(c2)OCCCC1=O)C(=O)N3 [Compound 109] | – | – | – | – | – | – | – | – | – | – | 0.224 µM | 0.0912 µM | 0.141 µM | – | 0.871 | 0.603 | > 10 | > 10 | > 10 | > 10
CN1CCNc2ncnc3c2/C(=C/Nc2cccc(c2)OCC(=O)N[C@H](Cc2ccccc2)C1)C(=O)N3 [Compound 169] | – | – | – | – | 5.08 | 5.07 | <5 | – | <5 | – | 1.82 µM and 2 µM | 3.55 µM | 1.86 µM and 3.24 µM | – | 9.12 | > 10 | 8.32 | > 10 | 7.41 | > 10
CN1CCNc2ncnc3c2/C(=C/Nc2ccc(Cl)c(c2)OCC(=O)N2CCC[C@@H]2C1)C(=O)N3 [Compound 192] | – | – | – | – | – | – | – | – | – | – | > 10 µM | > 10 µM | 5.01 µM | – | 3.09 | 2.19 | 2.51 | > 10 | > 10 | > 10
CN1CCCNc2ncnc3c2/C(=C/Nc2ccc(NCc4ccccc4)c(c2)OCCCC1=O)C(=O)N3 [Compound 110] | – | – | – | – | – | – | – | – | – | – | 0.407 µM | 0.537 µM | 0.912 µM | – | 1.17 | 1.66 | 2.63 | > 10 | 8.71 | 5.01
C[C@@H]1CN(C)CCCNc2ncnc3c2/C(=C/Nc2cccc(c2)OCC(=O)N1)C(=O)N3 [Compound 99] | – | – | – | – | – | – | – | – | – | – | 0.417 µM | > 10 µM | 2.04 µM | – | > 10 | > 10 | > 10 | > 10 | > 10 | > 10
CN1CCCNc2ncnc3c2/C(=C/Nc2ccc(NC(=O)Nc4ccccc4)c(c2)OCCCC1=O)C(=O)N3 [Compound 158] | – | – | – | – | – | – | – | – | – | – | 2.75 µM | 0.331 µM | 3.55 µM | – | 0.166 | 0.229 | 0.55 | 4.37 | 1.23 | 1.32
